Data on two compounds can be found in PMC5256054 (Iranian Journal of Parasitology, 2016).

pIC50: −log10 of the molar value.

The test system of assay [1] is P. falciparum 3D7 chloroquine (CQ) sensitive strain. The experiment in a line: In vitro antiplasmodial test, Giemsa-stained smear parasitemia count. It is filed as cell-based. Conditions: Plasmodium falciparum, 3D7, 24 h, read-out: P. falciparum IC50.
A further assay deals with P. falciparum strain K1. Conditions: read-out: IC50, P. falciparum strain K1; erythrocytic stages in vitro; ref [8]; cited from earlier work.
Assay [2] relates to P. falciparum strain NF54. Conditions: read-out: IC50, P. falciparum strain NF54; erythrocytic stages in vitro; ref [8]; cited from earlier work.

A word on the pIC50: it is −log10 of the IC50, conventionally taken in molar units. Regarding `CCN(CC)CCCC(C)Nc1ccnc2cc(Cl)ccc12` (stereo not drawn) [CQ, Chloroquine], the negative-log IC50 (pIC50) in assay [1] was 6.11.
On to `COc1cc(C=C2Oc3cc(OC(C)=O)cc(OC(C)=O)c3C2=O)cc(OC)c1OC(C)=O` [4,6,4′-triacetyl-3′,5′-dimethoxy-2-aurone], for which the negative-log IC50 (pIC50) in the assay on P. falciparum strain K1 was 8.15; in assay [2] it was 6.74.
